Patent US20150087673A1, “METHODS FOR USING AND BIOMARKERS FOR AMPK-ACTIVATING COMPOUNDS” (RIGEL PHARMACEUTICALS, INC., priority 2013, published 2015)
Marks after values point to notes of the source that are not given here.

Legend:
db/db mice = assay: Metabolomics study: metabolite profiling of liver, muscle, adipose tissue and plasma of treated db/db mice; format: in vivo, mouse
Procedure: Maledb/db mice (8 weeks) were orally gavaged once daily with either vehicle or 10 mg/kg compound 309. Liver, muscle, adipose tissue, and plasma from treated mice (n=6/treatment group) were collected 30 minutes after dosing both on day 3 of treatment. Frozen tissue and plasma samples were sent to Metabolon for unbiased metabolite analysis [(Durham, N.C.) See, Evans A, DeHaven C, Barrett T, Mitchell M, Milgram E (2009)—Integrated, nontargeted ultrahigh performance liquid chromatography/electrospray ionization tandem mass spectrometry platform for the identification and relative quantification of the small-molecule complement of biological systems. Anal Chem 81: 6656-6667. Lawton K, Berger A, Mitchell M, Milgram K, Evans A, et al. (2008)—Analysis of the adult human plasma metabolome. Pharmacogenomics 9: 383-397. Reitman Z J, Jin G, Karoly E D, Spasojevic I, Yang J, et al. (2011) Profiling the effects of isocitrate dehydrogenase 1 and 2 mutations on the cellular metabolome. PNAS 108: […].] Biochemical data were analyzed using Welch's two-sample t-tests.
(§1) Metabolite profiling of tissues from db/db mice orally dosed with either vehicle or 10 mg/kg compound 309 was used to characterize in detail the effects of the present AMPK activators on nutrient pathways in a commonly used mouse model of type 2 diabetes. […] Since AMPK activation results in both acute and chronic changes to metabolic pathways, samples from non-fasted mice treated for three days with compound 309 were analyzed. Samples were collected thirty minutes after compound dosing when compound 309 plasma levels as well as tissue AMPK activation were maximal.

[1] = Compound plasma levels after oral dosing; format: in vivo, mouse
Procedure: as §1

glucose uptake = assay: Glucose uptake in vitro; format: cell-based
gluconeogenesis = assay: Gluconeogenesis in vitro; format: cell-based
[2] = Adipose, 10 mg/kg oral once daily, day 3, 30 min after dosing
[3] = Liver, 10 mg/kg oral once daily, day 3, 30 min after dosing
[4] = Muscle, 10 mg/kg oral once daily, day 3, 30 min after dosing
[5] = Plasma, 10 mg/kg oral once daily, day 3, 30 min after dosing

SMILES: COc1ccc(C(=O)C2CCN(C(=O)c3ccc(C(=O)NC4CCN(Cc5ccc(C#N)cc5)CC4)cn3)CC2)cc1 [Compound 309, N-(1-(4-cyanobenzyl)piperidin-4-yl)-6-(4-(4-methoxybenzoyl)piperidine-1-carbonyl)nicotinamide]
- relative levels of the other amino acids (db/db mice; 10 mg/kg): not similarly affected
- 2-methylbutyrlcarnitine (C5) Ratio (Compound 309/Vehicle) (db/db mice; [2]): 0.57^††
- 3-hydroxybutyrate (BHBA) Ratio (Compound 309/Vehicle) (db/db mice; [2]): 1.68**
- 3-hydroxyisobutyrate Ratio (Compound 309/Vehicle) (db/db mice; [2]): 1.13
- 3-methyl-2-oxobutyrate Ratio (Compound 309/Vehicle) (db/db mice; [2]): 1
- 3-methyl-2-oxovalerate Ratio (Compound 309/Vehicle) (db/db mice; [2]): 1.31**
- 4-methyl-2-oxopentanoate Ratio (Compound 309/Vehicle) (db/db mice; [2]): 1.23
- alanine Ratio (Compound 309/Vehicle) (db/db mice; [2]): 1
- arginine Ratio (Compound 309/Vehicle) (db/db mice; [2]): 0.86^††
- asparagine Ratio (Compound 309/Vehicle) (db/db mice; [2]): 0.84
- aspartate Ratio (Compound 309/Vehicle) (db/db mice; [2]): 0.72^††
- butyrylcarnitine Ratio (Compound 309/Vehicle) (db/db mice; [2]): 0.82
- cysteine Ratio (Compound 309/Vehicle) (db/db mice; [2]): 0.62^†
- glutamate Ratio (Compound 309/Vehicle) (db/db mice; [2]): 0.89
- glutamine Ratio (Compound 309/Vehicle) (db/db mice; [2]): 0.95
- glycine Ratio (Compound 309/Vehicle) (db/db mice; [2]): 0.81
- hydroxybutyrylcarnitine Ratio (Compound 309/Vehicle) (db/db mice; [2]): 1.7**
- hydroxylisovaleroyl carnitine Ratio (Compound 309/Vehicle) (db/db mice; [2]): 0.86
- isobutyrylcarnitine Ratio (Compound 309/Vehicle) (db/db mice; [2]): 0.57^††
- isoleucine Ratio (Compound 309/Vehicle) (db/db mice; [2]): 0.73
- isovalerylcarnitine Ratio (Compound 309/Vehicle) (db/db mice; [2]): 0.58^††
- leucine Ratio (Compound 309/Vehicle) (db/db mice; [2]): 0.78
- lysine Ratio (Compound 309/Vehicle) (db/db mice; [2]): 0.74
- methionine Ratio (Compound 309/Vehicle) (db/db mice; [2]): 0.87
- phenylalanine Ratio (Compound 309/Vehicle) (db/db mice; [2]): 0.82
- proline Ratio (Compound 309/Vehicle) (db/db mice; [2]): 0.86
- propionylcarnitine Ratio (Compound 309/Vehicle) (db/db mice; [2]): 0.77
- serine Ratio (Compound 309/Vehicle) (db/db mice; [2]): 0.85
- threonine Ratio (Compound 309/Vehicle) (db/db mice; [2]): 0.77^†
- tryptophan Ratio (Compound 309/Vehicle) (db/db mice; [2]): 0.9
- tyrosine Ratio (Compound 309/Vehicle) (db/db mice; [2]): 0.85
- valine Ratio (Compound 309/Vehicle) (db/db mice; [2]): 0.81
- 2-methylbutyrlcarnitine (C5) Ratio (Compound 309/Vehicle) (db/db mice; [3]): 0.76
- 3-hydroxybutyrate (BHBA) Ratio (Compound 309/Vehicle) (db/db mice; [3]): 1.15
- 3-methylglutaryl carnitine (C6) Ratio (Compound 309/Vehicle) (db/db mice; [3]): 0.57^††
- N-acetylleucine Ratio (Compound 309/Vehicle) (db/db mice; [3]): 0.94
- alanine Ratio (Compound 309/Vehicle) (db/db mice; [3]): 1.4**
- alpha-hydroxyisovalerate Ratio (Compound 309/Vehicle) (db/db mice; [3]): 0.86
- arginine Ratio (Compound 309/Vehicle) (db/db mice; [3]): 1.67
- aspartate Ratio (Compound 309/Vehicle) (db/db mice; [3]): 1.59**
- butyrylglycine Ratio (Compound 309/Vehicle) (db/db mice; [3]): 0.41^††
- cysteine Ratio (Compound 309/Vehicle) (db/db mice; [3]): 0.97
- glutamate Ratio (Compound 309/Vehicle) (db/db mice; [3]): 1.61**
- glutamine Ratio (Compound 309/Vehicle) (db/db mice; [3]): 1.04
- glycine Ratio (Compound 309/Vehicle) (db/db mice; [3]): 0.96
- histidine Ratio (Compound 309/Vehicle) (db/db mice; [3]): 1.16*
- hydroxybutyrylcarnitine Ratio (Compound 309/Vehicle) (db/db mice; [3]): 1.45**
- hydroxylisovaleroyl carnitine Ratio (Compound 309/Vehicle) (db/db mice; [3]): 1
- isoleucine Ratio (Compound 309/Vehicle) (db/db mice; [3]): 0.86^††
- isovalerylcarnitine Ratio (Compound 309/Vehicle) (db/db mice; [3]): 0.54^††
- leucine Ratio (Compound 309/Vehicle) (db/db mice; [3]): 0.94
- lysine Ratio (Compound 309/Vehicle) (db/db mice; [3]): 1.11*
- methionine Ratio (Compound 309/Vehicle) (db/db mice; [3]): 1.03
- phenylalanine Ratio (Compound 309/Vehicle) (db/db mice; [3]): 0.96
- proline Ratio (Compound 309/Vehicle) (db/db mice; [3]): 0.94
- propionylcarnitine Ratio (Compound 309/Vehicle) (db/db mice; [3]): 0.73
- serine Ratio (Compound 309/Vehicle) (db/db mice; [3]): 1.19
- threonine Ratio (Compound 309/Vehicle) (db/db mice; [3]): 0.94
- tryptophan Ratio (Compound 309/Vehicle) (db/db mice; [3]): 0.99
- tyrosine Ratio (Compound 309/Vehicle) (db/db mice; [3]): 1.08
- valine Ratio (Compound 309/Vehicle) (db/db mice; [3]): 0.87^††
- 2-methylbutyrlcarnitine (C5) Ratio (Compound 309/Vehicle) (db/db mice; [4]): 0.63^††
- 3-hydroxybutyrate (BHBA) Ratio (Compound 309/Vehicle) (db/db mice; [4]): 2.2**
- 3-hydroxyisobutyrate Ratio (Compound 309/Vehicle) (db/db mice; [4]): 1.33*
- 3-methyl-2-oxovalerate Ratio (Compound 309/Vehicle) (db/db mice; [4]): 0.78
- 4-methyl-2-oxopentanoate Ratio (Compound 309/Vehicle) (db/db mice; [4]): 0.96
- alanine Ratio (Compound 309/Vehicle) (db/db mice; [4]): 0.96
- alpha-hydroxyisovalerate Ratio (Compound 309/Vehicle) (db/db mice; [4]): 0.85
- arginine Ratio (Compound 309/Vehicle) (db/db mice; [4]): 0.71
- aspartate Ratio (Compound 309/Vehicle) (db/db mice; [4]): 0.82
- butyrylcarnitine Ratio (Compound 309/Vehicle) (db/db mice; [4]): 0.62
- butyrylglycine Ratio (Compound 309/Vehicle) (db/db mice; [4]): 1.07
- glutamate Ratio (Compound 309/Vehicle) (db/db mice; [4]): 1.15
- glutamine Ratio (Compound 309/Vehicle) (db/db mice; [4]): 1.04
- glycine Ratio (Compound 309/Vehicle) (db/db mice; [4]): 0.96
- histidine Ratio (Compound 309/Vehicle) (db/db mice; [4]): 1
- hydroxybutyrylcarnitine Ratio (Compound 309/Vehicle) (db/db mice; [4]): 1.34*
- hydroxylisovaleroyl carnitine Ratio (Compound 309/Vehicle) (db/db mice; [4]): 0.86^†
- isobutyrylcarnitine Ratio (Compound 309/Vehicle) (db/db mice; [4]): 0.64^††
- isoleucine Ratio (Compound 309/Vehicle) (db/db mice; [4]): 0.81^††
- isovalerylcarnitine Ratio (Compound 309/Vehicle) (db/db mice; [4]): 0.58^††
- leucine Ratio (Compound 309/Vehicle) (db/db mice; [4]): 0.83^†
- lysine Ratio (Compound 309/Vehicle) (db/db mice; [4]): 0.96
- methionine Ratio (Compound 309/Vehicle) (db/db mice; [4]): 0.78^†
- phenylalanine Ratio (Compound 309/Vehicle) (db/db mice; [4]): 0.91
- proline Ratio (Compound 309/Vehicle) (db/db mice; [4]): 0.92
- propionylcarnitine Ratio (Compound 309/Vehicle) (db/db mice; [4]): 0.87^†
- serine Ratio (Compound 309/Vehicle) (db/db mice; [4]): 0.89
- threonine Ratio (Compound 309/Vehicle) (db/db mice; [4]): 0.89
- tiglyl carnitine Ratio (Compound 309/Vehicle) (db/db mice; [4]): 0.98
- tryptophan Ratio (Compound 309/Vehicle) (db/db mice; [4]): 0.95
- tyrosine Ratio (Compound 309/Vehicle) (db/db mice; [4]): 0.96
- valine Ratio (Compound 309/Vehicle) (db/db mice; [4]): 0.77^††
- 2-hydroxy-3-methylvalerate Ratio (Compound 309/Vehicle) (db/db mice; [5]): 0.91
- 2-methylbutyrlcarnitine (C5) Ratio (Compound 309/Vehicle) (db/db mice; [5]): 0.56^††
- 3-hydroxybutyrate (BHBA) Ratio (Compound 309/Vehicle) (db/db mice; [5]): 1.93**
- 3-hydroxyisobutyrate Ratio (Compound 309/Vehicle) (db/db mice; [5]): 1.69**
- 3-methyl-2-oxobutyrate Ratio (Compound 309/Vehicle) (db/db mice; [5]): 1.17
- 3-methyl-2-oxovalerate Ratio (Compound 309/Vehicle) (db/db mice; [5]): 1.06
- 3-methylglutaryl carnitine (C6) Ratio (Compound 309/Vehicle) (db/db mice; [5]): 0.55^††
- 4-methyl-2-oxopentanoate Ratio (Compound 309/Vehicle) (db/db mice; [5]): 1.05
- N-acetylisoleucisne Ratio (Compound 309/Vehicle) (db/db mice; [5]): 1.11
- N-acetylleucine Ratio (Compound 309/Vehicle) (db/db mice; [5]): 0.96
- alanine Ratio (Compound 309/Vehicle) (db/db mice; [5]): 1.22
- alpha-hydroxyisocaproate Ratio (Compound 309/Vehicle) (db/db mice; [5]): 0.91
- alpha-hydroxyisovalerate Ratio (Compound 309/Vehicle) (db/db mice; [5]): 0.91
- arginine Ratio (Compound 309/Vehicle) (db/db mice; [5]): 0.95
- asparagine Ratio (Compound 309/Vehicle) (db/db mice; [5]): 0.89
- butyrylcarnitine Ratio (Compound 309/Vehicle) (db/db mice; [5]): 0.65^†
- butyrylglycine Ratio (Compound 309/Vehicle) (db/db mice; [5]): 0.41^††
- cysteine Ratio (Compound 309/Vehicle) (db/db mice; [5]): 0.94
- glutamate Ratio (Compound 309/Vehicle) (db/db mice; [5]): 1.22*
- glutamine Ratio (Compound 309/Vehicle) (db/db mice; [5]): 1.03
- glycine Ratio (Compound 309/Vehicle) (db/db mice; [5]): 1.03
- histidine Ratio (Compound 309/Vehicle) (db/db mice; [5]): 0.99
- hydroxybutyrylcarnitine Ratio (Compound 309/Vehicle) (db/db mice; [5]): 2.28**
- isobutyrylcarnitine Ratio (Compound 309/Vehicle) (db/db mice; [5]): 0.41^††
- isoleucine Ratio (Compound 309/Vehicle) (db/db mice; [5]): 0.75^††
- isovalerylcarnitine Ratio (Compound 309/Vehicle) (db/db mice; [5]): 0.45^††
- isovalerylglycine Ratio (Compound 309/Vehicle) (db/db mice; [5]): 0.67^††
- leucine Ratio (Compound 309/Vehicle) (db/db mice; [5]): 0.75^†
- lysine Ratio (Compound 309/Vehicle) (db/db mice; [5]): 0.91
- methionine Ratio (Compound 309/Vehicle) (db/db mice; [5]): 0.88
- phenylalanine Ratio (Compound 309/Vehicle) (db/db mice; [5]): 0.87
- proline Ratio (Compound 309/Vehicle) (db/db mice; [5]): 0.96
- propionylcarnitine Ratio (Compound 309/Vehicle) (db/db mice; [5]): 1.07
- serine Ratio (Compound 309/Vehicle) (db/db mice; [5]): 0.83^†
- threonine Ratio (Compound 309/Vehicle) (db/db mice; [5]): 0.9
- tigloylglycine Ratio (Compound 309/Vehicle) (db/db mice; [5]): 0.96
- tryptophan Ratio (Compound 309/Vehicle) (db/db mice; [5]): 1.02
- tyrosine Ratio (Compound 309/Vehicle) (db/db mice; [5]): 1.11
- valine Ratio (Compound 309/Vehicle) (db/db mice; [5]): 0.91
- hydroxybutyrylcarnitine levels (db/db mice; all compartments sampled, 10 mg/kg): similarly increased
- intermediates of the catabolic pathways of all three BCAA (db/db mice; all three major metabolic organs and plasma, 10 mg/kg): Marked reductions
- effects on glucose metabolic pathways in global metabolite profiling (db/db mice; data not shown): no dramatic effects
- relative levels of butyrylglycine and butyrylcarnitine (db/db mice; liver and plasma, 10 mg/kg): reduction
- BHBA level vs vehicle (db/db mice; liver, 10 mg/kg oral once daily, day 3): no difference
- 3-hydroxybutyrate (BHBA) level vs vehicle (db/db mice; muscle, fat and plasma, 10 mg/kg oral once daily, day 3): significant elevation
- time after compound dosing when plasma levels were maximal [1]: thirty
- glucose uptake (glucose uptake): robust enhancement
- gluconeogenesis (gluconeogenesis): reduction
